This is an account of results in a melting point compilation (Tetko et al.; mined from patent text by program, amines drawn as free bases though some values may be those of a salt).

Each structure is given as a SMILES string.

The term melting point denotes the temperature, or range, at which the solid turns liquid. Compound `COC(=O)C(C(C)C)N1CC(NC(=O)Cc2ccccc2)C1=O` (stereo unspecified) showed a melting point of 105 to 107 °C. The compound `CCOC(=O)Cc1ccc2c(c1)sc1ccc(Cl)cc12` returned a melting point of 88 to 90 °C.

For `O=c1c2c(Cc3ccc(OC(F)(F)F)cc3)n[nH]c2c2cccnc2n1-c1cccc(OC(F)(F)F)c1`, the melting point lay within 129 to 132 °C.

`CC(=O)c1ccc(CNC(=O)C(F)(F)F)s1` gave a melting point of 83 to 84 °C. As for `COCCOc1ccc(/C=C/C(=O)NS(=O)(=O)c2cccc(Cl)c2)c(Oc2ncc(C(F)(F)F)cc2Cl)c1`, the figure is 157 to 158 °C.

The compound `CCCCCCCCOc1cc(N)c(OCOC)c(OC)c1` returned a melting point of 56 to 57 °C.

`CCOC(=O)C=Cc1cc(OCc2ccccc2)ccc1-c1ccc(-c2cccc(C)c2)c(C=O)c1` returned a melting point of 90 to 92 °C. As for `COc1ccc(C=CCCCCCC(=O)O)cc1`, the figure is 42 to 43 °C. Compound `O=C(ON1CCC(c2nsc3ccccc23)CC1)c1ccccc1` returned a melting point of 84 to 85 °C.

Take `CC(O)(c1nc2ccc(I)cc2c(=O)[nH]1)C(F)(F)F` (stereo unspecified): the melting point lay in the range of 205 to 207 °C. The compound `COc1cccc(C(=O)N(C(=O)OCCl)N(C(=O)c2cc(C)cc(C)c2)C(C)(C)C)c1C` yielded a melting point of 117 to 119 °C.

For `COc1ccc2c(c1)c(C)cc(=O)n2-c1ccc(Cl)cc1`, the melting point was in the range of 234 to 235 °C.

The compound `O=[N+]([O-])c1ccc2ccccc2c1NCC12CCCN1CCC2` had a melting point of 88 to 89 °C.

Compound `CCN(CC)CCCN1C(=O)NC(Cc2c[nH]c3ccccc23)C1=O` (stereo unspecified) returned a melting point of 90 °C.

In turn, `Fc1ccc(Cn2c(NC3CCN(CCNc4ncc[nH]4)CC3)nc3ccccc32)cc1` showed a melting point of 226 °C.

`CCSC(=N)Nc1ccc(CCN(C)Cc2ccccc2)cc1` had a melting point of 136 to 137 °C. In the case of `O=C(O)C(=O)CC(=O)c1ccc(OCc2ccccc2)cc1OCc1ccccc1`, the melting point fell in the range of 160 to 164 °C. In the case of `COc1ccc2c(c1)c(CC#N)cn2C(=O)OC(C)(C)C` it was 130 °C. As for `CSC(=NS(=O)(=O)c1ccccc1-c1ccccc1)SC`, the figure is 115 to 117 °C; as for `Cc1c(Cc2cccc(C(F)(F)F)c2)oc2cccc(-c3cccc(C(=O)NCCC#N)c3)c12`, 108 to 109 °C. Turning to `COc1cc2c(cc1OC)N(C(=O)c1ccc(-c3ccccc3C(F)(F)F)c(C)c1)Cc1ccc(C(=O)N(C)CC(O)CO)n1C2` (stereo unspecified), the melting point lay within 184 to 186 °C.

Take `COc1cccc(OC(c2ccccc2)C(O)C(=O)NC(C)C)c1` (stereo unspecified): the melting point lay within 118 to 120 °C. With `COCOc1cc(C=O)ccc1OCc1nc(-c2ccco2)oc1C`, the melting point fell in the range of 102 to 103 °C. As for `Cc1noc(C)c1C(C)(O)c1ccoc1` (stereo unspecified), the figure is 88 to 90 °C; as for `O=C(O)CCCc1ccc(-c2ccc(Cl)cc2)cc1`, 187 to 190 °C; as for `COc1cc2c(c(N)c1OC)C(=O)C(=Cc1cc(C)c(O)c(C)c1)C2`, 238 to 240 °C. In turn, `CCn1nc(-c2ccccc2)c(C(C)=O)c(Nc2cc(C)no2)c1=O` yielded a melting point of 178 to 179 °C.

In turn, `COc1ccccc1CC(=O)Nc1cc(Cl)c(Cl)cc1[N+](=O)[O-]` yielded a melting point of 123 to 125 °C. The compound `O=[N+]([O-])c1cc(C(F)(F)F)ccc1C1(O)CC=NO1` (stereo unspecified) had a melting point of 122 to 123 °C. Regarding `COc1cc2c(cc1O)C1Cc3c(Cl)cc(OC)c(OC(C)=O)c3CN1CC2` (single isomer, unassigned; (-)), the melting point lay within 172 to 173 °C.

Take `C1=C(c2ccc3[nH]ccc3c2)CCN(Cc2c[nH]c3ncccc23)C1`: the melting point lay within 187 to 189 °C. As for `O=C(O)CCc1[nH]c2cc(Cl)cc(Cl)c2c1Br`, the figure is 228 °C. As for `O=C(CCC(=O)N1CCC(c2ccc(Cl)cc2)CC1)c1ccc2c(c1)CNCC2`, the figure is 121 to 122 °C; as for `COc1ccc2[nH]cc(C=C[N+](=O)[O-])c2c1`, 151 to 152 °C. For the compound `COC1(OC)CCN(c2cc3c(cc2F)c(=O)c(C(=O)O)cn3C2CC2)C1`, the melting point was 224 to 226 °C. As for `CCOC(=O)/C=C/c1ccc(OCC(C)(C)O)cc1Oc1ncc(C(F)(F)F)cc1Cl`, the figure is 79 to 83 °C. In the case of `CC(C)(C)C=C/C=C/C(C)(C)C` it was 78 to 79 °C. `COC(=O)c1cc(CO)ccc1O` registered a melting point of 66 to 67 °C. In the case of `O=CC1=Cc2cc(OCCCc3ccccc3)ccc2OC1` it was 71 to 73 °C; in that of `COC(=O)c1ccccc1CS(=O)(=O)NC(=S)Nc1nc(OC)cc(OC)n1`, 167 to 168 °C. As for `Cc1nn(-c2cc(Oc3ccc(N)cc3Cl)c(Cl)cc2Cl)c(=O)n1C(F)F`, the melting point is 161 to 162 °C. In the case of `CCNc1nc(CC)c(C(=O)c2ccc(Cl)c([N+](=O)[O-])c2)s1` it was 149 to 152 °C. Regarding `Cc1ccc(C=NNC(=O)c2ccc(O)cc2)s1`, the melting point came out at 216 °C.

As for `CCCCC(c1cccc(C(F)(F)F)c1)n1ccc2cc(-c3ccccc3-c3nn[nH]n3)ccc21` (stereo unspecified), the melting point is 75 to 80 °C. As for `CC1(C)Cc2cc(N)c3c(c2C(c2ccccc2)=N1)CC(C)(C)O3`, the figure is 158 to 162 °C. As for `COc1cc([N+](=O)[O-])c2nccc(C)c2c1OCCCCCCCCCc1ccccc1`, the figure is 56 to 56.5 °C; as for `CN1CCN(c2cnn(C)c(=O)c2C=NO)CC1`, 168 to 169 °C. Consider `O=C(O)CCc1cn(Cc2ccc(OCc3csc(-c4ccncc4)n3)cc2)cc1-c1ccccc1`, for which the melting point was 149 to 150 °C. As for `Cc1onc(-c2ccc(Cl)o2)c1-c1ccc(F)cc1`, the figure is 104 to 105 °C. Consider `Cc1c(C(=O)c2cc(O)c(O)c([N+](=O)[O-])c2)[nH]c2ccccc12`, for which the melting point lay within 212 to 214 °C.

In turn, `COc1ccc2cc(C(C)C(=O)N3CSCC3C(=O)O)ccc2c1` (stereo unspecified) had a melting point of 165 to 168 °C. As for `COc1ccccc1N1Sc2ccccc2CC1=O`, the figure is 171 °C; as for `CC(=O)c1ccc2c(c1)Cc1cccc(C(C)=O)c1-2`, 128 to 129 °C. The compound `CCCCCCc1cc2c(cc1OCCCC(=O)O)C(=O)C(C)(C)C2` came in with a melting point of 82 °C. As for `COC(=O)c1cc2nccnc2cc1N`, the figure is 180 to 182 °C; as for `OC1(c2ccccc2)CNN=C1c1ccc(Cl)cc1` (stereo unspecified), 195 to 196 °C; as for `COc1ccccc1OCCNCCCc1c[nH]c2ccc(F)cc12`, 125 to 126 °C. As for `CC(Cc1ccc(C2=NNC(=O)CC2)cc1)NCC(O)c1cccc(Cl)c1` (stereo unspecified), the figure is 49 to 50 °C; as for `Cn1ccc(=O)c2cc(F)ccc21`, 88 to 89 °C. On to `CCCC1(C)OC(=O)C(c2ccc(F)c(F)c2)=C1c1ccc(S(C)(=O)=O)cc1` (stereo unspecified), for which the melting point is 89 to 90 °C.

In turn, `Clc1cc(I)cnc1Cl` gave a melting point of 55 to 57 °C. As for `CC(=O)Nc1nc(CCc2ccc(NC3=NCCN3)cc2)c(Cc2ccc(S(C)(=O)=O)cc2)s1`, the figure is 139 to 140 °C; as for `C=CC(=O)Nc1cccc2cccnc12`, 76.5 to 78.5 °C; as for `Nc1noc(-c2nc(Cl)c(N)nc2N)n1`, 278 °C. In the case of `O=C(O)c1ccc(-c2cnc3c(c2)N(Cc2ccccc2OC(F)(F)F)CCN3)cc1` it was 250 °C; in that of `Cc1noc2cc3c(cc12)C1(CO3)C(=O)N(CCC(C)C)c2ccccc21` (stereo unspecified), 135 to 138 °C; in that of `CC(C)(C)C(=O)C(Oc1ccc(Cl)cc1)n1ncnc1S` (stereo unspecified), 134 to 136 °C.

As for `Nc1cccc(C#Cc2c(F)c(F)nc(F)c2F)c1`, the melting point was in the range of 172 to 173 °C. As for `CCCCCCCCCCCCc1cc(C(=O)O)c(C)o1`, the figure is 70 to 73 °C; as for `CON=C1CCCc2cc(OCCCOc3c(Cl)cc(OCC=C(Cl)Cl)cc3Cl)ccc21`, 75 to 77 °C; as for `CCCCc1nc2c(N)nc3ccccc3c2n1CCCCNS(=O)(=O)Cc1ccccc1`, 197 to 200 °C. As for `Cc1ccc2c(c1)-c1nn(-c3ccc(Cl)cc3)c(=O)cc1CS2`, the figure is 200 to 206 °C; as for `O=C(O)c1cc(F)c(F)cc1Nc1ccnn1-c1ccccn1`, 242 to 245 °C. In the case of `Cn1nc(-c2cccc(Cl)c2)cc1C(=O)O` it was 164 to 167 °C. As for `O=C(c1ccc(OCC2CO2)cc1)c1cccc(C(=O)c2ccc(OCC3CO3)cc2)c1` (stereo unspecified), the melting point was in the range of 88 to 93 °C. `O=[N+]([O-])c1cn2c(n1)OC(COc1ccc(N3CCC(Cc4cc5cc(OC(F)(F)F)ccc5o4)CC3)cc1)CC2` (stereo unspecified) registered a melting point of 142 to 143 °C.

`CC1C(=O)N(c2ccccc2)N=C1N` (stereo unspecified) returned a melting point of 147 °C. `CC(C)(C)c1cc(CCc2ccccc2NC(=O)N2CCCCC2CCOCc2ccccc2)cc(C(C)(C)C)c1O` (stereo unspecified) yielded a melting point of 113 to 114 °C. In turn, `COc1ccc2cc(C=O)oc2c1` registered a melting point of 75 to 77 °C. `CC(=O)Oc1cc(OCC(F)(F)C(F)(F)F)ccc1C(=O)O` had a melting point of 126 °C. For `Cc1c(-c2cc(CN(C)C)ccc2F)sc2nc(N)[nH]c(=O)c12`, the melting point was in the range of 230 to 250 °C. In the case of `BrCc1ccc(-c2cnn(-c3ccc(CBr)cc3)n2)cc1` it was 144 to 145 °C; in that of `CCCCCCCCCCCCCOc1ccc(C(C)=O)o1`, 61 to 62 °C. In the case of `CCOC(=O)c1cc2c(nc1C)CCCC2` it was 105 to 106 °C; in that of `N#CCC(C#N)S(=O)(=O)c1ccc(Cl)cc1` (stereo unspecified), 130 to 137 °C; in that of `CSC1CCC2C3CCC4=CC(=O)C=CC4(C)C3(F)C(OC(C)=O)CC12C` (stereo unspecified), 169 to 170 °C. In the case of `COC(=O)CCCS(=O)(=O)c1ccc(C)cc1` it was 23 °C; in that of `N#Cc1cc(NC(=O)c2ccn(-c3ccc(F)cc3)c2)ccc1N1CCC(N2CCOCC2)CC1`, 182 to 183 °C. The compound `Nc1ccccc1SCn1ccccc1=O` returned a melting point of 130 to 133 °C. In the case of `C=CCN(C)C(=O)Cn1c(-c2ccc(Cl)cc2)nc2cccnc21` it was 124 to 127 °C; in that of `c1cnc2c(c1)-c1ncccc1C2(Cc1ccncc1)Cc1ccncc1`, 133 to 137 °C.
